{"source": "patent US20090304763A1", "about": "“Insect Attractant Composition” (priority 2006, published 2009)", "key": {"[1]": {"test_system": "mosquitoes", "experiment": "test comparing acetone alone versus composition: share of available mosquitoes lured", "format": "in vivo", "settings": "one test; acetone alone versus composition containing acetone, lactic acid and the fatty acid"}, "[2]": {"experiment": "surface energy of water with added acetone", "format": "physicochemical", "settings": "5% addition of acetone to water; water alone 73 dynes/cm", "excerpt": "While the C3-C12 ketones used in the composition are insufficient by themselves to act as an insect attractant; they provide other valuable properties to the composition. In particular, small-chain ketones have the ability to act as surface-active agents and thus provide the composition with a more consistent droplet diameter and a lower surface energy when the liquid composition is released. For instance, a 5% addition of acetone to water can reduce water surface energy from 73 dynes/cm to 56 dynes/cm. While not wishing to be bound by this theory, it is believed that producing a composition with a consistent and smaller diameter size provides a better presentation to the antennae of the flying insects."}}}
{"smiles": "CC(C)=O", "note": "[acetone alone, acetone]", "values": [{"measurement": "average of all available mosquitoes lured", "setting": "[1]", "value": 6.7, "unit": "%"}, {"measurement": "water surface energy", "setting": "[2]", "value": 56, "unit": "dynes/cm"}]}
